Results published in patent publication US20200256880A1, “Neuronal Assay Method Involving Calcineurin” (The Broad Institute, Inc., priority 2017, published 2020).

How the values were obtained:
[1] = test system: S469 CNAα phosphorylation in rat hippocampal neurons; test: Pharmacological blockade of glutamate receptors and L-type Ca channels, with or without bicuculline; phospho-S469 CNAα at synapsin-marked synapses; type: cell-based; conditions: baseline and bicuculine-induced; localized to synapses marked by synapsin
From the text: (A) Rat hippocampal neurons grown in 96-well plates were stimulated with various plasticity induction paradigms or modulators of neuronal activity levels, fixed and stained for phospho-S469 CNAα and MAP2, and imaged. (B) Quantification of phospho-S469 CNAα levels within MAP2-positive dendrites in wells shown in (A). (C) Quantification of total CNAα levels within MAP2-positive dendrites in wells shown in (A). (D) Rat hippocampal neurons were pretreated with vehicle, DNQX, nifedipine, […], or a combination of all three (with group listed in this order from left to right in panel (D)) prior and after treatment with bicuculline. Neurons were then fixed and stained for phospho-S469 CNAα and synapsin and imaged on a Phenix® (Perkin Elmer) imaging system, a high content imaging system. Shown is the phospho-S469 CNAα levels localized to synapses marked by synapsin. Bic=bicuculine. *≤0.05 compared to control sample, **<0.01, ***<0.001, and ****<0.0001 compared to control sample. For FIG. 7D, statistics were derived by comparing the pharmacological condition with the equivalent control condition, either vehicle or bicucculine treated.
Next, the dependency of S469 CNAα phosphorylation was assessed when neurons were treated by blockade of glutamate receptors and L-type Ca channels using pharmacological blockers. […]

[2] = test system: phosphorylated RII (pRII) peptide; test: Calcineurin phosphatase enzyme assay with pRII peptide; type: biochemical, human; conditions: recombinant CNAα/CNB1 holoenzyme, pRII substrate, in the presence of CaM
Protocol: To investigate whether phosphorylation of CNAα Ser469 modifies calcineurin phosphatase activity, a phosphomimetic mutant was generated by replacing S469 with E469 in purified, recombinant human calcineurin. The S469E mutant or wild type of CNAα was co-expressed with CNB1 subunit in E. coli and co-purified. Both mutant and wild type show similar expression level and purity. Their concentrations were quantified by OD280 and CaM titration.
Enzyme activity was then assessed. CN enzymatic parameters for wild-type and S469E mutant proteins were measured using phosphorylated RII (pRII) peptide in a buffer containing 50 mM HEPES (pH=7.0), 1 mM CaCl2, 1 mM MnCl2, 0.5 mM dithiothreitol (DTT), and 0.1 mg/ml bovine serum albumin (BSA). Phosphate product release was monitored at 620 nm on SpectraMax_i3x spectrophotometer (Molecular Devices) with a 96-well plate-based calcineurin phosphatase assay kit (Abcam). Briefly, CN (40 nM) and CM (200 nM) were pre-mixed in 2× assay buffer. The reaction was initiated by addition of 25 μl pRII substrate (in H2O) to equal volume of CN/CaM mixture. The final concentration of pRII used ranged from 12 μM to 750 μM. Reaction was stopped by green quench reagent after 20 minutes. Km was determined using nonlinear regression of the Michaelis-Menten equation.

[3] = test system: phospho-S469 CNAα in rat hippocampal neurons; type: cell-based

Row | Compound | levels of phospho-S469 CNAα within dendrites [3] | other results
1 | NC(CCCP(=O)(O)O)C(=O)O (stereo not drawn) [AP5] |  | S469 CNAα phosphorylation [1]: most strongly reducing
2 | S469E: phosphomimetic mutant of recombinant human CNAα (S469 replaced with E469) co-expressed with CNB1 |  | Km [2]: 256 µM
3 | NC1=N[C@H](O)[C@H]2[C@H]3O[C@]4(O)O[C@@H]([C@@H](O)[C@@]2(N1)[C@@H]4O)[C@]3(O)CO [TTX, tetrodotoxin] | decrease | 
4 | N[C@H](C(=O)O)c1cc(O)cc(O)c1 [DHPG, dihydroxypheylglycine] | significantly and robustly increased | 
5 | CN[C@H](CC(=O)O)C(=O)O [NMDA, N-methyl-D-asparatate] | significantly and robustly increased | 
6 | CC(C)NCC(O)c1ccc(O)c(O)c1 (stereo not drawn) [isoproterenol] | significantly and robustly increased | 
